Measurements: PubChem BioAssay (NCI)
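Assay format: 96-well plates, 48-hour exposure. GI50 marks 50% less growth. TGI: total growth inhibition.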

Assays:
Experiment in all cases: NCI anticancer screen, dose series, 48 h
[1] = system: A549 NSCLC
[2] = system: HCT-116 colon
[3] = system: HOP-62 NSCLC
[4] = system: KM12 colon
[5] = system: MALME-3M melanoma
[6] = system: OVCAR-3 ovarian
[7] = system: OVCAR-4 ovarian
[8] = system: RXF 393 renal
[9] = system: SNB-75 CNS
[10] = system: TK-10 renal

Compound | GI50 [1] | TGI [1] | GI50 [2] | TGI [2] | GI50 [3] | TGI [3] | GI50 [4] | TGI [4] | GI50 [5] | TGI [5] | GI50 [6] | TGI [6] | GI50 [7] | TGI [7] | GI50 [8] | TGI [8] | GI50 [9] | TGI [9] | GI50 [10] | TGI [10]
Cc1cc(C(=O)Nc2n[nH]c3ccccc23)n[nH]1 | > 100 µM | > 100 µM | > 100 µM | > 100 µM | > 100 µM | > 100 µM | 28.9 µM | > 100 µM | > 100 µM | > 100 µM | > 100 µM | > 100 µM | > 100 µM | > 100 µM | > 100 µM | > 100 µM | 62.6 µM | > 100 µM | > 100 µM | > 100 µM
Cc1ccc(Nc2cc(Cl)c([N+](=O)[O-])cc2[N+](=O)[O-])cc1 | 7.76 µM | 22.1 µM | 2.59 µM | 6.94 µM | 5.82 µM | 16.2 µM | 3.24 µM | 8.8 µM | 5.72 µM | 14 µM | 3.33 µM | 7.85 µM | 4.52 µM | 16.2 µM | 2.57 µM | 6.66 µM | 3.91 µM | 17.5 µM | 6.03 µM | 17.5 µM
Cc1coc2c1C(=O)C(=O)c1ccccc1-2 |  | 4.07 µM |  | 0.879 µM |  | 3 µM |  | 3.49 µM |  | 2.96 µM |  | 3.29 µM |  | 3.22 µM |  | 3.12 µM |  | 3.15 µM |  | 3.3 µM
COc1cccc(-c2nn(-c3ccccc3)cc2-c2ccnc(NCCCNC(=O)c3cccc(C(F)(F)F)c3)c2)c1 | 4.07 µM | 16.2 µM | 3.81 µM | 16.1 µM | 10.3 µM | 30.6 µM | 3.64 µM | 19.8 µM | 2.66 µM | 8.22 µM | 4.52 µM | 19.7 µM | 4.22 µM | 32.2 µM | 2.2 µM | 7.52 µM | 17 µM | 57.8 µM | 7.33 µM | 31.2 µM
NC(=S)N=Nc1c(O)[nH]c2c(Cl)cc(Cl)cc12 |  | > 100 µM |  | 40.5 µM |  | 49.4 µM |  | 42.2 µM |  | 35.2 µM |  | 34.8 µM |  | > 100 µM |  | 33.7 µM |  | 42.4 µM |  | > 100 µM
CC(C)(C)OC(=O)NCCCCn1c2c(c3ccccc3c1=O)C(=O)c1ccccc1-2 | 17.6 µM | 44.5 µM | 5.21 µM | > 100 µM | 28.7 µM | > 100 µM | 28.9 µM | > 100 µM | 27.1 µM | 80.6 µM | 5.42 µM | 23.3 µM | 47.8 µM | > 100 µM | 23.1 µM | > 100 µM | 35.4 µM | > 100 µM | 20.7 µM | 47.7 µM
CCCCCCCCOCC(O)CO (centres undefined) |  | > 100 µM |  | > 100 µM |  | > 100 µM |  | > 100 µM |  | > 100 µM |  | > 100 µM |  | > 100 µM |  | > 100 µM |  | > 100 µM |  | > 100 µM
Cc1ccc(C(=O)c2sc3nc4c(cc3c2N)CCCC4)c(C)c1 | 0.377 µM | > 100 µM | 0.26 µM | > 100 µM | 0.465 µM | > 100 µM | 0.251 µM | > 100 µM | 0.0754 µM | > 100 µM | 0.183 µM | > 31.9 µM | 1.97 µM | > 100 µM | 0.328 µM | 2.31 µM | 0.247 µM | 6.16 µM | 12.8 µM | > 100 µM
Cc1cccc(C)c1NC(=O)CCc1nnc2s/c(=C\c3ccc(N(C)C)cc3)c(=O)n12 |  | > 100 µM |  | > 100 µM |  | > 100 µM |  | > 100 µM |  | > 100 µM |  | > 100 µM |  | > 100 µM |  | > 100 µM |  | > 100 µM |  | > 100 µM
C[P+](C)(C)C |  | > 100 µM |  | > 100 µM |  | > 100 µM |  | > 100 µM |  | > 100 µM |  | > 100 µM |  | > 100 µM |  | > 100 µM |  | > 100 µM |  | > 100 µM
C/C(=N\NC(N)=S)c1ccc(C)c(C)c1 |  | > 100 µM |  | > 100 µM |  | > 100 µM |  | > 100 µM |  | 94.1 µM |  | 66.7 µM |  | > 100 µM |  | 86.4 µM |  | > 100 µM |  | > 100 µM
N#Cc1ccc(-c2c(-c3ncn[nH]3)sc(N3CCOCC3)c2C#N)c(F)c1 | 0.666 µM | 12.7 µM | 0.553 µM | 37.6 µM | 1.05 µM | 21.9 µM | 2.25 µM | 15.6 µM | 0.275 µM | 6 µM | 0.502 µM | 7.89 µM | 2.82 µM | 36.6 µM | 0.246 µM | 1.68 µM | 0.0736 µM | 0.771 µM | 0.316 µM | 7.11 µM
CCOC(=O)C(Cc1c[nH]c2cc(N(CCO)CCO)ccc12)(NC(C)=O)C(=O)OCC | 604 µM | > 1000 µM | 325 µM | > 1000 µM | > 1000 µM | > 1000 µM | 143 µM | 463 µM | 258 µM | > 1000 µM | 186 µM | 726 µM | > 1000 µM | > 1000 µM | 128 µM | 719 µM |  | > 1000 µM | > 1000 µM | > 1000 µM
O=C(O)C1CC=CCC1C(=O)Nc1cccc(O)c1 (centres undefined) |  | > 100 µM |  | > 100 µM |  | > 100 µM |  | > 100 µM |  | > 100 µM |  | > 100 µM |  | > 100 µM |  | > 100 µM |  | > 100 µM |  | > 100 µM
O=[P+](O)c1ccccn1 |  | > 100 µM |  | > 100 µM |  | > 100 µM |  | > 100 µM |  | > 100 µM |  | > 100 µM |  | > 100 µM |  | > 100 µM |  | > 100 µM |  | > 100 µM
